In patent US10781208B2, “5,6-dihydro-11H-indolo[2,3-B]quinolin-11-ones as alk inhibitors” (THE REGENTS OF THE UNIVERSITY OF MICHIGAN, priority 2016, dated 2020):

Key:
Kappas-299 (NPM-ALK) = assay: Cell growth inhibition assay (WST-8), Kappas-299; assay type: cell-based; conditions: read-out: Kappas-299 (nM) (NPM-ALK), 50% of cell growth inhibition (IC50), Kappas-299 cells, WST-8, versus DMSO control
Protocol: (§1) All cell lines were cultured as recommended. For cell growth inhibition assay, cells were treated with different concentrations of the tested compounds, diluted from stock to culture media containing a 0.2% DMSO as the final concentration. Cell viability was determined using the WST-8 cell proliferation assay kit (Dojindo Molecular Technologies) according to manufacture's instructions. Three independent experiments in triplicates were performed.

wild-type human ALK = target: T1, wild-type human ALK (Homo sapiens, UniProt Q9UM73); assay: ALK kinase activity, Lance TR-FRET assay (wild-type); assay type: biochemical; conditions: Table 2, ALK enzyme; read-out: Inhibitory activity (nM) ALK
T1 construct: The cytoplasmic domain (amino acid 1058-1620) of wild-type human ALK protein; GST (N); purchased Carna Biosciences, Inc (Japan)
Protocol: Mutated ALK proteins were expressed in SF9 insect cells with N-terminal tags cleaved after purification. Kinase activities of all enzymes were assessed using a Lance TR-FRET assay kit from Perkin Elmer Life Sciences (Waltham, Mass.). 2.5 μL of compound solution and 5 μL of protein solution were added into a black low volume 384 well microtiter plate which was incubated for 30 minutes with gentle shaking at room temperature, followed by adding 2.5 μL of fluorescently labeled peptide substrate and ATP mixture solution. The kinase reaction was performed in 50 mM HEPES (pH 7.5) with 1 mM EGTA, 1 mM MgCl2, and 2 mM DTT, 0.01% Tween-20 added right before the assay. […] The final mixture was incubated in the dark for 1 hour before the plate was read on a Tecan Infinite M-1000 multi-mode plate reader (Tecan, Durham N.C.) with an excitation wavelength of 320 nm.

KARPAS 299 xenograft = KARPAS 299 xenograft model in mice, in vivo antitumor efficacy; conditions: SCID mice, given orally, once daily for 3 weeks, FIG. 1
Protocol: Tumor cells for xenografts were washed twice in PBS, and re-suspended in an ice cold mixture of 1:1 PBS and Matrigel (BD Biosciences, Invitrogen Corp.) for a final Matrigel protein concentration of 5 mg/ml. Cells at 5×10^6 cells in 0.1 ml were injected subcutaneously (s.c.) into the flank region of each mouse.
The size of tumors growing in the mice was measured in two dimensions using calipers. Tumor volume (mm^3)=(A×B^2)/2 where A and B are the tumor length and width (in mm), respectively. During treatment, tumor volume and body weight were measured three times a week. After the treatment was stopped, tumor volume and body weight was measured at least once a week.
Tumors were not allowed to exceed 10% of the animal's total body weight. If an animal had two or more tumors the total weight of all tumors were not allowed to exceed 10% of the animal's total body weight. At the end of the experimental period or when tumor size approached 10% of the total body weight, the animal was euthanized.
Mice with tumors within acceptable size range were randomized into treatment groups of 7 mice. Drug was given orally, once daily for 3 weeks. The Control group received vehicle alone.

H3122 (EML4-ALK) = assay: Cell growth inhibition assay (WST-8), H3122; assay type: cell-based; conditions: Homo sapiens, NCI-H3122, read-out: H3122 (nM) (EML4-ALK), 50% of cell growth inhibition (IC50); H3122 cells, WST-8, versus DMSO control
Protocol: as §1

T1 sequence (Q9UM73 1058-1620): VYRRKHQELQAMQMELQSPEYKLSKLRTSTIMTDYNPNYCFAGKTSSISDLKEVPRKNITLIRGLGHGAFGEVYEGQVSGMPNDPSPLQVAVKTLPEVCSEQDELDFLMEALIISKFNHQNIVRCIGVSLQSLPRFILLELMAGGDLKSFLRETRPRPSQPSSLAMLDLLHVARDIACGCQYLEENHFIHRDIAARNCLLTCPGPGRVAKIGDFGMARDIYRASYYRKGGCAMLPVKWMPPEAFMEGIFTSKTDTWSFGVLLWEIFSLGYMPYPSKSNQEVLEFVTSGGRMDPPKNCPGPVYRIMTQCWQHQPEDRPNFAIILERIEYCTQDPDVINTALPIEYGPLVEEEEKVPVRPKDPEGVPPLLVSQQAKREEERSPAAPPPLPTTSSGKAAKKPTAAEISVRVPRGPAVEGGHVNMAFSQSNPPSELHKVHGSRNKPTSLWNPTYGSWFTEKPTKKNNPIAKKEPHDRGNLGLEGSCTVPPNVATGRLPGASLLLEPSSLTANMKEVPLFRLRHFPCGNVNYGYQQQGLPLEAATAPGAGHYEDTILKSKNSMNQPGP

SMILES | IC50 (Kappas-299 (NPM-ALK)) [nM] | IC50 (wild-type human ALK) [nM] | tumor growth in the KARPAS 299 xenograft model (KARPAS 299 xenograft) | IC50 (H3122 (EML4-ALK)) [nM]
COc1cc2c(=O)c3c4ccc(C#N)cc4[nH]c3n(C(C)C)c2c(F)c1C1=CC(C)(C)N(C)C(C)(C)C1 [Cpd. No. 12, 4-fluoro-5-isopropyl-2-methoxy-11-oxo-3-(1,2,2,6,6-pentamethyl-1,2,3,6-tetrahydropyridin-4-yl)-6,11-dihydro-5H-indolo[2,3-b]quinoline-8-carbonitrile] | 9.7 | 0.24 | inhibit tumor growth | –
COc1cc2c(=O)c3c4ccc(C#N)cc4[nH]c3n(C(C)C)c2c(F)c1C1=C[C@@H](C)N(C)[C@@H](C)C1 [Cpd. No. 19, 4-fluoro-5-isopropyl-2-methoxy-11-oxo-3-((2S,6R)-1,2,6-trimethyl-1,2,3,6-tetrahydropyridin-4-yl)-6,11-dihydro-5H-indolo[2,3-b]quinoline-8-carbonitrile] | 16 | 0.36 | inhibit tumor growth | 20
COc1cc2c(=O)c3c4ccc(C#N)cc4[nH]c3n(C(C)C)c2c(F)c1C1=CCN(C)CC1 [Cpd. No. 17, 4-fluoro-5-isopropyl-2-methoxy-3-(1-methyl-1,2,3,6-tetrahydropyridin-4-yl)-11-oxo-6,11-dihydro-5H-indolo[2,3-b]quinoline-8-carbonitrile] | 60 | 0.75 | – | –
COc1cc2c(=O)c3c4ccc(C#N)cc4[nH]c3n(C(C)C)c2c(F)c1C1=C[C@@H](C)N[C@@H](C)C1 [Cpd. No. 18, 3-((2S,6R)-2,6-dimethyl-1,2,3,6-tetrahydropyridin-4-yl)-4-fluoro-5-isopropyl-2-methoxy-11-oxo-6,11-dihydro-5H-indolo[2,3-b]quinoline-8-carbonitrile] | 16 | 0.5 | – | 18
COc1cc2c(=O)c3c4ccc(C#N)cc4[nH]c3n(C(C)C)c2c(F)c1C1=CCN(C2CCOCC2)CC1 [Cpd. No. 20, 4-fluoro-5-isopropyl-2-methoxy-11-oxo-3-(1-(tetrahydro-2H-pyran-4-yl)-1,2,3,6-tetrahydropyridin-4-yl)-6,11-dihydro-5H-indolo[2,3-b]quinoline-8-carbonitrile] | 38 | 1.4 | inhibit tumor growth | 30
CCN1[C@H](C)CN(c2c(OC)cc3c(=O)c4c5ccc(C#N)cc5[nH]c4n(C(C)C)c3c2F)C[C@@H]1C [Cpd. No. 9, 3-((3R,5S)-4-ethyl-3,5-dimethylpiperazin-1-yl)-4-fluoro-5-isopropyl-2-methoxy-11-oxo-6,11-dihydro-5H-indolo[2,3-b]quinoline-8-carbonitrile] | 85 | – | – | 27
COc1cc2c(=O)c3c4ccc(C#N)cc4[nH]c3n(C(C)C)c2c(F)c1C1CC2CCC(C1)N2C (stereo not shown) [Cpd. No. 10, 4-fluoro-5-isopropyl-2-methoxy-3-(8-methyl-8-azabicyclo[3.2.1]octan-3-yl)-11-oxo-6,11-dihydro-5H-indolo[2,3-b]quinoline-8-carbonitrile] | 69 | 0.37 | – | –
COc1cc2c(=O)c3c4ccc(C#N)cc4[nH]c3n(C(C)C)c2c(F)c1C1=CCNCC1 [Cpd. No. 16, 4-fluoro-5-isopropyl-2-methoxy-11-oxo-3-(1,2,3,6-tetrahydropyridin-4-yl)-6,11-dihydro-5H-indolo[2,3-b]quinoline-8-carbonitrile] | 167 | 0.85 | – | –
